Source: patent publication US6413530B1, “Pesticidal peptides” (priority 1999, dated 2002)
Where two headings read alike, the source gives them in different places. Where a SMILES comes first, the peptide text is derived from it. Where no end group is shown, it is not given here. [ ]: non-standard residue; d: D form.

Columns and labels:
[1] = tested on: trypsin biosynthesis; assay: Trypsin biosynthesis in guts of fourth instar H. virescens fed TMOF analogues ([3H]DFP); assay type: in vivo, Heliothis virescens; conditions: for Trypsin μg ± S.E.M.: guts removed after 5 days feeding 0.8 μg analog, incubated with [3H]DFP; for Inhibition (% ± S.E.M.) of trypsin: versus control, after 5 days feeding 0.8 μg analog; for reduction in trypsin biosynthesis: fourth instar larvae fed analogue peptides for 5 days
Experimental: (§1) Individual first instar and fourth instar larvae of H. virescens were maintained in separate plastic cups and were fed on artificial diet blocks on which different concentrations of TMOF (0 to 1.6 mg) were adsorbed. Larvae were fed for 5 to 14 days and larval weight and trypsin activity were measured at the end of the experimental periods. […] When first instar larvae were fed for 14 days, an 18% and 26% reduction in weight was observed when analogues 15 and 14 were used (Table 4).

[2] = tested on: fourth instar H. virescens; assay: Feeding TMOF analogues to fourth instar H. virescens: larval weight; assay type: in vivo, Heliothis virescens; conditions: for Weight Gain / Weight mg ± S.E.M. End: fourth instar larvae; for Weight Gain: 0.8 μg analog for 5 days; for Weight mg ± S.E.M. End: synthetic food and 0.8 μg analog for 5 days; for reduction in larval weight: fourth instar larvae fed analogue peptides for 5 days
Experimental: as §1

[3] = tested on: First instar larvae of H. virescens; assay: Feeding of first instar H. virescens on TMOF analogs for 14 days; assay type: in vivo, Heliothis virescens; conditions: for Number of Dead Larvae / Weight (mg) ± S.E.M. / Weight Reduction (%) ± S.E.M.: first instar larvae, 1.6 μg analog, 14 days; for Weight Reduction (%) ± S.E.M.: versus control; for reduction in weight: first instar larvae fed for 14 days
Experimental: as §1

[4] = tested on: mosquito larvae; assay type: in vivo; conditions: newly hatched larvae on autoclaved yeast 1 mg/ml plus peptide, microtiter plates, 7 days
Experimental: Preferably, the subject peptides have an LD50 against mosquito larvae of less than 3.0 μmole/ml. More preferably, the peptides have an LD50 of less than […], and, most preferably, the peptides have an LD50 of less than 1.0 μmole/ml. As used herein, “LD50” refers to a lethal dose of a peptide able to cause 50% mortality of larvae maintained on a diet of 1 mg/ml autoclaved yeast supplemented with the pesticidal polypeptide. (Borovsky, Dov, and Farida Mahmood [1995] Regulatory Peptides 57:273-281).
TMOF can traverse the gut epithelium, enter the hemolymph and bind a gut receptor (Borovsky, D. and F. Mahmood (1995) “Feeding the mosquito Aedes aegypti with TMOF and its analogs; effect on trypsin biosynthesis and egg development,” Regulatory Peptides 57:273-281.; Borovsky et al. (1994) “Characterization and localization of mosquito-gut receptors for trypsin modulating oostatic factor using complementary peptide immunochemistry” FASEB J. 8:350-355.). This characteristic permits the testing of TMOF and its analogues by feeding them to mosquito and other pest larvae. To find out if truncated TMOF peptides have an effect on larval growth and development, a series of peptides were synthesized and tested by feeding them to mosquito larvae at concentrations of 0 to 5.0 mg/ml (Table 2). Individual, newly hatched Aedes aegypti larvae were maintained in separate microtiter plate wells on a diet of autoclaved yeast (1 mg/ml). The diet was supplemented with TMOF peptides (Table 2). An identical number of larvae maintained on yeast served as a control. […] All control groups survived and larval growth and development was normal. Since larvae swallow only a small portion of the yeast particles adsorbed the peptides, it is assumed that approximately 1 to 20 ng are taken orally at the high concentrations.

## C[C@H](NC(=O)[C@@H]1CCCN1C(=O)[C@@H](CC(=O)O)NC(=O)[C@@H](N)Cc1ccc(O)cc1)C(=O)N1CCC[C@H]1C(=O)O [Compound 17, Y(D)DPAP] (H-Y[dD]PAP-OH; N-terminus and C-terminus assumed)
[1]
  Trypsin μg ± S.E.M.: 2.1 ± 0.2 µg
  Inhibition (% ± S.E.M.) of trypsin: 15 ± 1.3%
[2]
  Weight Gain: 153 mg
  Weight mg ± S.E.M. End: 188 ± 12 mg
[3]
  Number of Dead Larvae: 1
  Weight (mg) ± S.E.M.: 152 ± 27 mg
  Weight Reduction (%) ± S.E.M.: 7 ± 1%

## N[C@@H](Cc1ccc(O)cc1)C(=O)N[C@H](CC(=O)O)C(=O)N1CCC[C@H]1C(=O)O [Compound 22, Y(D)DP] (H-Tyr-[dD]-Pro-OH; N-terminus and C-terminus assumed)
[4]; left half of Table 2
  LD50 ± S.E.M.: 0.28 ± 0.01 mM

## (D)YDP [Compound 24]
[4]; right half of Table 2
  LD50 ± S.E.M.: 0.51 ± 0.05 Mm

## AAP [Compound 29]
[4]; right half of Table 2
  LD50 ± S.E.M.: 1.08 ± 0.07 Mm

## ADP [Compound 40]
[4]; right half of Table 2
  LD50 ± S.E.M.: >6.6 Mm

## ADPAP [Compound 21, ADPAP]
[1]
  Trypsin μg ± S.E.M.: 2.4 ± 0.3 µg
  Inhibition (% ± S.E.M.) of trypsin: 5 ± 0.6%
[4]; left half of Table 2
  LD50 ± S.E.M.: 2.0 ± 0.36 mM
[2]
  Weight Gain: 174.1 mg
  Weight mg ± S.E.M. End: 209.7 ± 12 mg
[3]
  Number of Dead Larvae: 0
  Weight (mg) ± S.E.M.: 141 ± 9 mg
  Weight Reduction (%) ± S.E.M.: 7 ± 0.4%

## APA [Compound 28]
[4]; right half of Table 2
  LD50 ± S.E.M.: 1.0 ± 0.07 Mm

## DAA [Compound 25]
[4]; right half of Table 2
  LD50 ± S.E.M.: 0.91 ± 0.06 Mm

## DPA [Compound 23]
[4]; right half of Table 2
  LD50 ± S.E.M.: 0.4 ± 0.03 Mm

## DYP [Compound 31]
[1]
  Trypsin μg ± S.E.M.: 2.2 ± 0.3 µg
  Inhibition (% ± S.E.M.) of trypsin: 14 ± 1.8%
[4]; right half of Table 2
  LD50 ± S.E.M.: 1.27 ± 0.17 Mm
[2]
  Weight Gain: 180.5 mg
  Weight mg ± S.E.M. End: 216.7 ± 13 mg
[3]
  Number of Dead Larvae: 1
  Weight (mg) ± S.E.M.: 149 ± 9 mg
  Weight Reduction (%) ± S.E.M.: 9 ± 0.5%

## FAP [Compound 39]
[4]; right half of Table 2
  LD50 ± S.E.M.: 3.8 ± 0.23 Mm

## FDP [Compound 33]
[4]; right half of Table 2
  LD50 ± S.E.M.: 1.98 ± 0.6 Mm

## FDPAP [Compound 5, FDPAP]
[4]; left half of Table 2
  LD50 ± S.E.M.: 0.37 ± 0.15 mM

## FSP [Compound 35]
[4]; right half of Table 2
  LD50 ± S.E.M.: 2.3 ± 0.13 Mm

## MPDYPPPPP [Compound 2, MPDYP5]
[4]; left half of Table 2
  LD50 ± S.E.M.: >3.0 mM

## PAA [Compound 37]
[4]; right half of Table 2
  LD50 ± S.E.M.: 2.4 ± 0.34 Mm

## PAP [Compound 38]
[4]; right half of Table 2
  LD50 ± S.E.M.: 3.17 ± 0.14 Mm

## YAP [Compound 36]
[4]; right half of Table 2
  LD50 ± S.E.M.: 2.3 ± 0.5 Mm

## YAPAP [Compound 8, YAPAP]
[4]; left half of Table 2
  LD50 ± S.E.M.: 0.54 ± 0.13 mM

## YDA [Compound 32]
[4]; right half of Table 2
  LD50 ± S.E.M.: 1.6 ± 0.13 Mm

## YDAAP [Compound 15, YDAAP]
[1]
  reduction in trypsin biosynthesis: reduction
  Trypsin μg ± S.E.M.: 2.1 ± 0.2 µg
  Inhibition (% ± S.E.M.) of trypsin: 17 ± 1.6%
[4]; left half of Table 2
  LD50 ± S.E.M.: 1.0 ± 0.18 mM
[2]
  reduction in larval weight: reduction
  Weight Gain: 179 mg
  Weight mg ± S.E.M. End: 217 ± 9.5 mg
[3]
  reduction in weight: 18%
  Number of Dead Larvae: 0
  Weight (mg) ± S.E.M.: 133 ± 7 mg
  Weight Reduction (%) ± S.E.M.: 18 ± 1%

## YDF [Compound 27]
[4]; right half of Table 2
  LD50 ± S.E.M.: 0.97 ± 0.11 Mm

## YDFAP [Compound 14, YDFAP]
[1]
  reduction in trypsin biosynthesis: reduction
  Trypsin μg ± S.E.M.: 2.1 ± 0.2 µg
  Inhibition (% ± S.E.M.) of trypsin: 19 ± 1.5%
[4]; left half of Table 2
  LD50 ± S.E.M.: 0.74 ± 0.13 mM
[2]
  reduction in larval weight: reduction
  Weight Gain: 164 mg
  Weight mg ± S.E.M. End: 201 ± 12 mg
[3]
  reduction in weight: 26%
  Number of Dead Larvae: 1
  Weight (mg) ± S.E.M.: 121 ± 7 mg
  Weight Reduction (%) ± S.E.M.: 26 ± 1.5%

## YDG [Compound 26]
[4]; right half of Table 2
  LD50 ± S.E.M.: 0.95 ± 0.11 Mm

## YDLAP [Compound 13, YDLAP]
[4]; left half of Table 2
  LD50 ± S.E.M.: 0.6 ± 0.05 mM

## YDP [Compound 34]
[1]
  Trypsin μg ± S.E.M.: 2.1 ± 0.3 µg
  Inhibition (% ± S.E.M.) of trypsin: 19 ± 3.2%
[4]; right half of Table 2
  LD50 ± S.E.M.: 2.3 ± 0.4 Mm
[2]
  Weight Gain: 186.3 mg
  Weight mg ± S.E.M. End: 223.4 ± 16 mg
[3]
  Number of Dead Larvae: 0
  Weight (mg) ± S.E.M.: 157 ± 10 mg
  Weight Reduction (%) ± S.E.M.: 4 ± 0.2%

## YDPAA [Compound 19, YDPAA]
[4]; left half of Table 2
  LD50 ± S.E.M.: 1.6 ± 0.13 mM

## YDPAF [Compound 3, YDPAF]
[4]; left half of Table 2
  LD50 ± S.E.M.: 0.33 ± 0.2 mM

## YDPAL [Compound 7, YDPAL]
[4]; left half of Table 2
  LD50 ± S.E.M.: 0.52 ± 0.03 mM

## YDPAP [Compound 12, YDPAP, reference compound]
[4]; left half of Table 2
  LD50 ± S.E.M.: 1.64 ± 0.03 mM

## YDPAPPPPPP [Compound 1, YDPAP6, reference compound]
[4]; left half of Table 2
  LD50 ± S.E.M.: 0.2 ± 0.02 mM

## YDPFP [Compound 20, YDPFP]
[4]; left half of Table 2
  LD50 ± S.E.M.: 1.7 ± 0.4 mM

## YDPGP [Compound 16, YDPGP]
[1]
  Trypsin μg ± S.E.M.: 2.1 ± 0.1 µg
  Inhibition (% ± S.E.M.) of trypsin: 17 ± 1%
[4]; left half of Table 2
  LD50 ± S.E.M.: 1.1 ± 0.18 mM
[2]
  Weight Gain: 163.1 mg
  Weight mg ± S.E.M. End: 199.8 ± 11 mg
[3]
  Number of Dead Larvae: 2
  Weight (mg) ± S.E.M.: 153 ± 10 mg
  Weight Reduction (%) ± S.E.M.: 6 ± 0.4%

## YDPLP [Compound 6, YDPLP]
[4]; left half of Table 2
  LD50 ± S.E.M.: 1.5 ± 0.04 mM

## YEPAP [Compound 4, YEPAP]
[4]; left half of Table 2
  LD50 ± S.E.M.: 0.35 ± 0.02 mM

## YFPAP [Compound 11, YFPAP]
[4]; left half of Table 2
  LD50 ± S.E.M.: 0.64 ± 0.03 mM

## YNPAP [Compound 9, YNPAP]
[4]; left half of Table 2
  LD50 ± S.E.M.: 0.55 ± 0.03 mM

## YSF [Compound 30]
[4]; right half of Table 2
  LD50 ± S.E.M.: 1.08 ± 0.12 Mm

## YSPAP [Compound 18, YSPAP]
[1]
  reduction in trypsin biosynthesis: reduction
  Trypsin μg ± S.E.M.: 2.0 ± 0.2 µg
  Inhibition (% ± S.E.M.) of trypsin: 19 ± 2%
[4]; left half of Table 2
  LD50 ± S.E.M.: 1.4 ± 0.03 mM
[2]
  reduction in larval weight: reduction
  Weight Gain: 151 mg
  Weight mg ± S.E.M. End: 188 ± 10.6 mg
[3]
  Number of Dead Larvae: 0
  Weight (mg) ± S.E.M.: 168 ± 11 mg
  Weight Reduction (%) ± S.E.M.: 0%
